Test [1] relates to TCH04-577 GII.3 HuNoV. As to the kind of experiment: GII.3 replication in jejunal enteroids with acid sphingomyelinase inhibitors (RT-qPCR). It is filed as cell-based, human norovirus. As to conditions: inhibitor present 1 hr before and during 24 hrs. On the procedure: FIG. 34. Acid sphingomyelinase (ASM) inhibitors suppress GII.3 HuNoV replication. Jejunal enteroids were pretreated with inhibitors for 1 hr and inoculated with TCH04-577 for 1 hr, washed twice with CMGF(−) and cultured for 24 hrs in the presence of the inhibitors. RNA was extracted from cells and medium at 1 and 24 hpi and genome equivalents were analyzed by RT-qPCR.
Acid sphingomyelinase (ASM) that converts sphingomyelin into ceramide is involved in HuNoV infectivity, in at least certain embodiments.

The test system of test [2] is TCH04-577 GII.3 HuNoV. As to the kind of experiment: GII.3 replication in J2 jHIE monolayers with ceramide and GCDCA. The note with it: ceramide alone; 24 hpi. Format: cell-based, human norovirus. On the procedure: FIG. 32. At least one lipid, ceramide, enhances GII.3 HuNoV replication alone or in combination with the bile acid GCDCA.J2 jHIE monolayers (p.12) were inoculated with 4.3×105 genome equivalents of TCH04-577 for 1 hr, and after washing twice with CMGF(−) media to remove unbound virus, culture continued in differentiation medium for 24 hrs. The amount of infectious virus was quantified after the washing at 1 hpi (black bars) and at 24 hpi (gray bars). Additives were added to the medium during and post inoculation.
(§1) FIG. 33. Ceramide alone, or in combination with the bile acid GCDCA, enhances GII.3 but not GII.4 HuNoV replication. J2 jHIE monolayers (p.23) were inoculated with 4.3×105 or 9×105 genome equivalents of TCH04-577 or TCH12-580, respectively, for 1 hr and, and after washing twice with CMGF(−) media to remove unbound virus, culture continued in differentiation medium for 72 hrs. The amount of infectious virus was quantified after the washing at 1 hpi (black bars) and 72 hpi (gray bars). Additives (500 μM GCDCA or 500 μM GCDCA+50 μM C2-ceramide) were added to the medium during and post inoculation. Error bars denote standard deviation. p<0.01 comparing genome equivalents at 72 hpi between GCDCA and ceramide+GCDCA.

The subject of test [3] is TCH04-577 GII.3 HuNoV. Description: microbe, parasite or virus in culture. The note with it: Norovirus, in Homo sapiens, 72 h, read-out: Fold increase in viral genome copies compared to no bile (0-72 hpi).
Description: (§2) At 72 hours post infection, the cells and media were harvested and viral RNA was quantified by qRT-PCR. Each bile acid was added at a concentration of 0.5 mM.
The subject of test [4] is GII.4 HuNoV. As to the kind of experiment: GII.4 HuNoV replication in jejunal HIE monolayers with bile, bile fractions or additives (RT-qPCR). It is filed as cell-based, human norovirus. The note with it: GCDCA bile acid. The procedure: FIGS. 26A-26D. Bile is not required but enhances GII.4 HuNoV replication. […] The monolayers were inoculated with 5.5×10^5 genome equivalents of (FIG. 26A) GII.4/2006b-3 or, (FIG. 26B) GII.4/2009, or (FIGS. 26C and 26D) GII.4/2012-1 in the absence or presence of the indicated bile for 1 hour at 37° C.
as §1
One can analyze these samples by mass spectroscopy to determine the bile acid, lipid, fatty acid and/or cholesterol content. Bile was also fractionated based on filtration through different molecular cut-off filters. […]

Test [5] deals with GII.4/2012-1 HuNoV. As to the kind of experiment: GII.4/2012-1 replication and CPE in jejunal HIEs with polymyxin B-treated stool filtrate. It is filed as cell-based, human norovirus. As to conditions: inoculation with polymyxin B-treated samples. On the procedure:
FIGS. 21A-21C. […] (FIG. 21A) GII.4/2012-1 stool filtrates were not treated (−) or treated (+) with 100 μg/m polymyxin B for 24 hours. Then, 9×10^5 genome equivalents of the filtrates were inoculated onto each jejunal HIE monolayer for 1 hour. The monolayers were washed twice with CMGF(−) medium and cultured in differentiation medium. […] Error bars denote standard deviation. (FIG. 21B) Gamma irradiated or non-irradiated GII.4/2012-1 stool filtrates were either not treated (−) or treated (+) with polymyxin B for 24 hours. Jejunal HIE monolayers were inoculated with […] for 1 hour as described above. […]
We next evaluated the growth characteristics of HuNoV infection by assessing cytopathic effect (CPE), antigen detection, and the kinetics of infection. […] Two particle sizes were detected (FIG. 15D), with particles of the expected size (31.6+/−3.3 nm) and some smaller particles (FIG. 15D inset, 18.5+/−3.7 nm). […] By Western blot analysis, nonstructural polyprotein synthesis and processing (as evidenced by the detection of several VPg-containing polyprotein processing intermediates) and capsid protein (VP1) production were first detected at 12 hpi in infected cells but not at 1 or 6 hpi or in mock-infected cells (FIG. 15E). Consistent with the production of virus particles (FIG. 15D), VP1 was detected in the culture supernatant by 24 hpi (FIG. 15E). […]

In test [6] the test system is TCH04-577 GII.3 HuNoV. As to conditions: J2 enteroids.
Description: as §2
In test [7] the test system is TCH11-64 GII.4 HuNoV. Description: GII.4 infection of jejunal enteroids after cholesterol extraction or trypsin treatment (VP1-positive cells). Format: cell-based, human norovirus. As to conditions: 24 hpi. On the procedure:
FIG. 35. Cholesterol extraction using methyl-β-cyclodextrin or treatment of cells with trypsin reduces HuNoV infection. Jejunal enteroids were untreated or treated for 45 min with methyl-β-cyclodextrin (MβCD) or 15 min with trypsin. Trypsin was inhibited with aprotinin and then the monolayer was washed prior to infection. MβCD was present during and after infection. Enteroids were infected with 3×10^6 genome equivalents of TCH11-64 GII.4 HuNoV. Enteroid monolayers were fixed at 24 hpi, VP1 detected by immunofluorescence and the number of VP1-positive cells counted per well.
In specific embodiments of the disclosure, HuNoV use a proteinaceous receptor in lipid rafts for infection. Lipid rafts are specialized domains of the cell membrane and are central for the spatial organization of receptors and signaling molecules. […] Identification of the proteinaceous molecule(s) that function as the receptor for HuNoV replication will allow production of new, simple cell systems that express this receptor and that will support HuNoV replication.

Test [8] relates to porcine enteric calicivirus. As to conditions: Flynn and Saif, 1988; Chang et al., 2004; cited from earlier work.
The test system of test [9] is GI.1, GII.3, GII.17 HuNoVs. Description: Replication of other HuNoV strains in jejunal HIE monolayers with components of the intestinal milieu. The note with it: GI.1, GII.3, GII.17 in jejunal HIE monolayers.
Description: The monolayers were washed three times with CMGF(−) medium and cultured for the indicated days in differentiation medium in the absence (0%) or presence of the indicated concentrations of bile. At 1 hour and the indicated time post-inoculation, the cells and medium were harvested, RNA extracted and viral genome equivalents quantified by RT-qPCR. Data represent the mean of three wells for each treatment and time point. Error bars denote standard deviation. *, P<0.05 comparing genome equivalents from 1 hpi to the indicated time points.
We next tested whether monolayer cultures of jejunal HIEs could support replication of other HuNoV strains (GI.1, GII.3, GII.17). […] Consequently, several components of the intestinal milieu were assessed for their ability to promote replication of these HuNoVs in HIE monolayers.

Where two headings read alike, the source gives them in different places.

As to `CN(C)CCC=C1c2ccccc2CCc2ccccc21` [amitriptyline], in [1], the GII.3 replication result was “significantly reduced” and the “dose dependence of the effect on GII.3 replication” value is recorded as “dose-dependent decrease”.
With `CCCCCCCCCCCCC/C=C/[C@@H](O)[C@H](CO)NC(C)=O` [Ceramide, C2-ceramide], in test [2], the GII.3 replication entry is “enhances”.
Take `C[C@H](CCC(=O)NCCS(=O)(=O)O)[C@H]1CC[C@H]2[C@@H]3CC[C@@H]4C[C@H](O)CC[C@]4(C)[C@H]3C[C@H](O)[C@]12C` [TDCA, Taurodeoxycholic acid]: the fold induction at 500 µM in [3] was determined as 95.
With `C[C@H](CCC(=O)NCCS(=O)(=O)O)[C@H]1CC[C@H]2[C@@H]3CC[C@@H]4C[C@H](O)CC[C@]4(C)[C@H]3CC[C@]12C` [TLCA, taurolithocholic acid], the fold induction at 500 µM in [3] stood at 268.
`CC(CCC(=O)NCC(=O)O)C1CCC2C3C(O)CC4CC(O)CCC4(C)C3CCC12C` (stereo not shown) [GCDCA, Glycochenodeoxycholic acid]: the GII.4 replication entry in [4] is on record as “can enhance”. Further, the fold induction at 500 µM in test [3] was 71 to 106.
On to `C[C@H](CCC(=O)O)[C@H]1CC[C@H]2[C@@H]3[C@H](O)C[C@@H]4C[C@H](O)CC[C@]4(C)[C@H]3C[C@H](O)[C@]12C` [CA, cholic acid], for which the fold induction at 500 µM in [3] lay within 49 to 63.
Regarding polymyxin B, the CPE entry in [5] is “not reduced”.
Take `CN(C)CCCN1c2ccccc2Sc2ccc(Cl)cc21` [chlorpromazine]: in [1], the GII.3 replication entry was “significantly reduced” and the “dose dependence of the effect on GII.3 replication” value was “dose-dependent decrease”.
Regarding `CC(CCC(=O)NCC(=O)O)C1CCC2C3CCC4CC(O)CCC4(C)C3CC(O)C12C` (stereo not shown) [GDCA, glycodeoxycholic acid], the fold induction at 500 µM in test [3] came to 160.
Consider `C[C@H](CCC(=O)NCCS(=O)(=O)O)[C@H]1CC[C@H]2[C@@H]3[C@H](O)C[C@@H]4C[C@H](O)CC[C@]4(C)[C@H]3C[C@H](O)[C@]12C` [TCA, Taurocholic acid], for which the fold induction at 500 µM in test [3] came out at 65.
On to `C[C@H](CCC(=O)O)[C@H]1CC[C@H]2[C@@H]3[C@H](O)C[C@@H]4C[C@H](O)CC[C@]4(C)[C@H]3CC[C@]12C` [CDCA, chenodeoxycholic acid], for which, in test [6] (bile acid 100 uM), the “Fold increase in viral genome copies compared to no bile (0-72 hpi)” value is given as “no increase”.
`C[C@H](CCC(=O)O)[C@H]1CC[C@H]2[C@@H]3[C@@H](O)C[C@@H]4C[C@H](O)CC[C@]4(C)[C@H]3CC[C@]12C` [UDCA, ursodeoxycholic acid]: in [6] (bile acid 500 uM), the “Fold increase in viral genome copies compared to no bile (0-72 hpi)” value is “no increase”.
Same read-out and setting: with `C[C@H](CCC(=O)NCCS(=O)(=O)O)[C@H]1CC[C@H]2[C@@H]3[C@H](O)C[C@@H]4C[C@H](O)CC[C@]4(C)[C@H]3CC[C@]12C` [TCDCA, Taurochenodeoxycholic acid] the figure was 48-103 fold.
Consider methyl-β-cyclodextrin, for which the “GII.4 infection (VP1-positive cells per well)” value in test [7] is reported as “significantly reduced”.
On to `C[C@H](CCC(=O)NCCS(=O)(=O)O)[C@H]1CC[C@H]2[C@@H]3[C@@H](O)C[C@@H]4C[C@H](O)CC[C@]4(C)[C@H]3CC[C@]12C` [TUDCA, Tauroursodeoxycholic acid], for which, in test [8], the “replication of porcine enteric calicivirus” value was “did not enhance”. Besides, the fold induction at 500 µM in [3] was determined as 27.
On to `C[C@H](CCC(=O)NCC(=O)O)[C@H]1CC[C@H]2[C@@H]3[C@H](O)C[C@@H]4C[C@H](O)CC[C@]4(C)[C@H]3C[C@H](O)[C@]12C` [GCA, Glycocholic acid], for which the fold induction at 500 µM in test [3] was found to be 48.

B1: trypsin: protease that cleaves proteins (protein, UniProt P00760 24-246, looked up)
Serine protease 1: IVGGYTCGANTVPYQVSLNSGYHFCGGSLINSQWVVSAAHCYKSGIQVRLGEDNINVVEGNEQFISASKSIVHPSYNSNTLNNDIMLIKLKSAASLNSRVASISLPTSCASAGTQCLISGWGNTKSSGTSYPDVLKCLKAPILSDSSCKSAYPGQITSNMFCAGYLEGGKDSCQGDSGGPVVCSGKLQGIVSWGSGCAQKNKPGVYTKVCNYVSWIKQTIASN
For B1, the “GII.4 infection (VP1-positive cells per well)” value in test [7] is “reduced”. Moreover, the HuNoV replication entry in test [9] is listed as “failed to enhance”.

Values taken from US11920165B2, “Cultivation of human noroviruses” (Baylor College of Medicine, priority 2015, dated 2024).
